Earlier results, collected in patent US20140370105A1, “TREATMENT OF INFLAMMATORY BOWEL DISEASE WITH 6-MERCAPTOPURINE” (Teva Pharmaceutical Industries, Ltd., priority 2008, published 2014).

System: inflammatory bowel disease
Details: conventional therapy

Sc1ncnc2nc[nH]c12 [6-MP, 6-mercaptopurine]
time required to be effective / show effect (IBD / Crohn's disease patients): 3-4 months | time required to show any benefit (IBD patients): at least 12 weeks
